Measured values from patent US9274101B2 (BIOLOG, Inc., priority 2001, dated 2016).

Columns and labels:
Type in all cases: cell-based, human
HL-60 cells [1] = experiment: HL-60 responses to selected compounds at a range of concentrations
Description: In this Example, methods for testing unattached cells for their ability to use various concentrations of selected carbon sources are described. The carbon sources used in this Example were identified by the methods disclosed in Example 27. Similarly, HL-60 cells were cultured as described in Example 27.
After washing, HL-60 cells were resuspended in DME-R. An aliquot of the cell suspension was counted by trypan blue exclusion and the cell density was adjusted to 6.67×10^5/mL. Fifty μL of DME-R were added to each well of the appropriate number of half area, 96-well plates, followed by 23 μL of the appropriate dilution of each test energy source. Stocks of 133 mM of each test chemical were prepared in tissue culture grade water, sterile filtered, and dilutions were prepared in a master plate so that, upon dilution in a total volume of 150 μL, the final concentrations would be 0.033 to 20 mM. Negative control wells received 23 μL of tissue culture grade water. The cells were plated at a volume of 75 μL/well, giving a final cell density of 5×10^4/well. For each plate containing energy sources and cells, a second, control plate containing only energy sources was prepared. Plates were incubated at 5% CO2, 90-100% humidity, and 37° C. for 24 hours prior to addition of the MTS/MPMS colorometric reagent (7.5 μL/well). The color formed in each well after an additional 24 hour incubation period, was measured on a plate reader at 490 nm with a reference wavelength of 650 nm. OD values from the control plate were subtracted from the OD values obtained with cells prior to normalizing the data to % negative control (cells without added energy source).

[2] = system: Undifferentiated HL-60 cells; experiment: Energy use by undifferentiated HL-60 cells
HL-60 cells [3] = experiment: Effect of 10 mM citric acid on HL-60 energy utilization; conditions: negative control without energy sources and without citric acid
HL-60 cells [4] = experiment: Effect of 1 mM chloramphenicol on HL-60 energy utilization; conditions: negative control without chloramphenicol
Description: In this Example, methods for testing antimicrobial-induced modulation in growth of a cell are described. The antimicrobial selected for this Example is chloramphenicol. However, this application is not intended to be limited to the use of chloramphenicol, translation inhibitors or even antibiotics. HL-60 cells were cultured as described in Example 27.
After washing, HL-60 cells were resuspended in DME-R. An aliquot of the cell suspension was counted by trypan blue exclusion and the cell density was adjusted to 6.67×10^5[…]. Fifty μL of DME-R containing 3 mM chloramphenicol were added to each well of the appropriate number of half area, 96-well plates, followed by 25 μL of the appropriate dilution of each test energy source. Stocks of 133 mM of each test chemical were prepared in tissue culture grade water, sterile filtered, and dilutions were prepared in a master plate so that, upon dilution in a total volume of 150 μL, the final concentrations would be 0.033 to 20 mM. Negative control wells received 25 μL of tissue culture grade water. The cells were plated at a volume of 75 μL/well, giving a final cell density of 5×10^4/well. For each plate containing energy sources and cells, a second, control plate containing only energy sources was prepared. Plates were incubated at 5% CO2, 90-100% humidity, and 37° C. for 24 hours prior to addition of the MTS/MPMS colorimetric reagent (7.5 μL/well). The color formed in each well 24 hours after addition of the colorimetric reagent, was measured with a plate reader at 490 nm with a reference wavelength of 650 nm. OD values from the control plate were subtracted from the OD values obtained with cells prior to normalizing the data to % negative control.
Data shown in Table 25 are expressed as percent negative control without chloramphenicol. […] Chloramphenicol clearly has a different effect on the cells than citrate shown in Example 33.

[5] = energy source 0.03 mM with 10 mM citric acid
[6] = energy source 0.10 mM with 10 mM citric acid
[7] = energy source 0.33 mM with 10 mM citric acid
[8] = energy source 1.00 mM with 10 mM citric acid
[9] = energy source 3.3 mM with 10 mM citric acid
[10] = energy source 10 mM with 10 mM citric acid
[11] = energy source 15 mM with 10 mM citric acid
[12] = energy source 20 mM with 10 mM citric acid
[13] = energy source 0.03 mM with 1 mM chloramphenicol
[14] = energy source 0.10 mM with 1 mM chloramphenicol
[15] = energy source 0.33 mM with 1 mM chloramphenicol
[16] = energy source 1.00 mM with 1 mM chloramphenicol
[17] = energy source 3.3 mM with 1 mM chloramphenicol
[18] = energy source 10 mM with 1 mM chloramphenicol
[19] = energy source 15 mM with 1 mM chloramphenicol
[20] = energy source 20 mM with 1 mM chloramphenicol

Row | SMILES | Effect of 10 mM Citric Acid on HL-60 Energy Utilization (HL-60 cells [3]; [5]) | Effect of 10 mM Citric Acid on HL-60 Energy Utilization (HL-60 cells [3]; [6]) | Effect of 10 mM Citric Acid on HL-60 Energy Utilization (HL-60 cells [3]; [7]) | Effect of 10 mM Citric Acid on HL-60 Energy Utilization (HL-60 cells [3]; [8]) | Effect of 10 mM Citric Acid on HL-60 Energy Utilization (HL-60 cells [3]; [9]) | Effect of 10 mM Citric Acid on HL-60 Energy Utilization (HL-60 cells [3]; [10]) | Effect of 10 mM Citric Acid on HL-60 Energy Utilization (HL-60 cells [3]; [11]) | Effect of 10 mM Citric Acid on HL-60 Energy Utilization (HL-60 cells [3]; [12]) | Effect of 1 mM chloramphenicol on HL-60 Energy Utilization (HL-60 cells [4]; [13]) | Effect of 1 mM chloramphenicol on HL-60 Energy Utilization (HL-60 cells [4]; [14]) | Effect of 1 mM chloramphenicol on HL-60 Energy Utilization (HL-60 cells [4]; [15]) | Effect of 1 mM chloramphenicol on HL-60 Energy Utilization (HL-60 cells [4]; [16]) | Effect of 1 mM chloramphenicol on HL-60 Energy Utilization (HL-60 cells [4]; [17]) | Effect of 1 mM chloramphenicol on HL-60 Energy Utilization (HL-60 cells [4]; [18]) | Effect of 1 mM chloramphenicol on HL-60 Energy Utilization (HL-60 cells [4]; [19]) | Effect of 1 mM chloramphenicol on HL-60 Energy Utilization (HL-60 cells [4]; [20]) | other results
1 | O=C1O[C@H]([C@@H](O)CO)[C@@H](O)[C@@H]1O [L-gal acid g-lactone] | 16.2 % of negative control | 18.2 % of negative control | 19.7 % of negative control | 38.6 % of negative control | 188.9 % of negative control | 138.4 % of negative control | 122.4 % of negative control | 111.5 % of negative control | −2.0 % of negative control | −8.4 % of negative control | 4.3 % of negative control | −13.9 % of negative control | 3.7 % of negative control | 14.5 % of negative control | 18.0 % of negative control | 2.4 % of negative control | HL-60 Cell Responses to Selected Compounds from PM1 and PM2 (HL-60 cells [1]; Conc. 0.03 mM): 129.3 % of negative control; HL-60 Cell Responses to Selected Compounds from PM1 and PM2 (HL-60 cells [1]; Conc. 0.10 mM): 132.3 % of negative control; HL-60 Cell Responses to Selected Compounds from PM1 and PM2 (HL-60 cells [1]; Conc. 0.33 mM): 132.4 % of negative control; HL-60 Cell Responses to Selected Compounds from PM1 and PM2 (HL-60 cells [1]; Conc. 1.00 mM): 145.0 % of negative control; HL-60 Cell Responses to Selected Compounds from PM1 and PM2 (HL-60 cells [1]; Conc. 3.3 mM): 141.5 % of negative control; HL-60 Cell Responses to Selected Compounds from PM1 and PM2 (HL-60 cells [1]; Conc. 10 mM): 122.8 % of negative control; HL-60 Cell Responses to Selected Compounds from PM1 and PM2 (HL-60 cells [1]; Conc. 15 mM): 125.0 % of negative control; HL-60 Cell Responses to Selected Compounds from PM1 and PM2 (HL-60 cells [1]; Conc. 20 mM): 100.4 % of negative control; Energy Use by Undifferentiated HL-60 Cells ([2]; Conc. 0.03 mM): 117.0 % of negative control; Energy Use by Undifferentiated HL-60 Cells ([2]; Conc. 0.10 mM): 125.9 % of negative control; Energy Use by Undifferentiated HL-60 Cells ([2]; Conc. 0.33 mM): 132.9 % of negative control; Energy Use by Undifferentiated HL-60 Cells ([2]; Conc. 1.00 mM): 137.0 % of negative control; Energy Use by Undifferentiated HL-60 Cells ([2]; Conc. 3.3 mM): 160.8 % of negative control; Energy Use by Undifferentiated HL-60 Cells ([2]; Conc. 10 mM): 153.0 % of negative control; Energy Use by Undifferentiated HL-60 Cells ([2]; Conc. 15 mM): 163.4 % of negative control; Energy Use by Undifferentiated HL-60 Cells ([2]; Conc. 20 mM): 126.2 % of negative control
2 | CC(C)[C@H](N)C(=O)O [L-valine] | 9.3 % of negative control | 13.4 % of negative control | 12.4 % of negative control | 12.7 % of negative control | 20.8 % of negative control | 32.2 % of negative control | 42.3 % of negative control | 64.5 % of negative control | 6.6 % of negative control | 4.3 % of negative control | 4.0 % of negative control | 3.2 % of negative control | 4.3 % of negative control | 5.5 % of negative control | 2.6 % of negative control | 7.5 % of negative control | activity at 30 µM (HL-60 cells [1]; Homo sapiens, HL-60, Conc. 0.03 mM, read-out: HL-60 Cell Responses to Selected Compounds from PM1 and PM2): 117%; activity at 100 µM (HL-60 cells [1]; Homo sapiens, HL-60, Conc. 0.10 mM, read-out: HL-60 Cell Responses to Selected Compounds from PM1 and PM2): 137%; activity at 330 µM (HL-60 cells [1]; Homo sapiens, HL-60, Conc. 0.33 mM, read-out: HL-60 Cell Responses to Selected Compounds from PM1 and PM2): 134%; activity at 1000 µM (HL-60 cells [1]; Homo sapiens, HL-60, Conc. 1.00 mM, read-out: HL-60 Cell Responses to Selected Compounds from PM1 and PM2): 135%; activity at 3300 µM (HL-60 cells [1]; Homo sapiens, HL-60, Conc. 3.3 mM, read-out: HL-60 Cell Responses to Selected Compounds from PM1 and PM2): 133%; activity at 10000 µM (HL-60 cells [1]; Homo sapiens, HL-60, Conc. 10 mM, read-out: HL-60 Cell Responses to Selected Compounds from PM1 and PM2): 125%; activity at 15000 µM (HL-60 cells [1]; Homo sapiens, HL-60, Conc. 15 mM, read-out: HL-60 Cell Responses to Selected Compounds from PM1 and PM2): 122%; activity at 20000 µM (HL-60 cells [1]; Homo sapiens, HL-60, Conc. 20 mM, read-out: HL-60 Cell Responses to Selected Compounds from PM1 and PM2): 112%; activity at 30 µM ([2]; Homo sapiens, HL-60, 24 h, Conc. 0.03 mM, read-out: Energy Use by Undifferentiated HL-60 Cells): 89.6%; activity at 100 µM ([2]; Homo sapiens, HL-60, 24 h, Conc. 0.10 mM, read-out: Energy Use by Undifferentiated HL-60 Cells): 93.2%; activity at 330 µM ([2]; Homo sapiens, HL-60, 24 h, Conc. 0.33 mM, read-out: Energy Use by Undifferentiated HL-60 Cells): 83.8%; activity at 1000 µM ([2]; Homo sapiens, HL-60, 24 h, Conc. 1.00 mM, read-out: Energy Use by Undifferentiated HL-60 Cells): 78.6%; activity at 3300 µM ([2]; Homo sapiens, HL-60, 24 h, Conc. 3.3 mM, read-out: Energy Use by Undifferentiated HL-60 Cells): 86.4%; activity at 10000 µM ([2]; Homo sapiens, HL-60, 24 h, Conc. 10 mM, read-out: Energy Use by Undifferentiated HL-60 Cells): 89%; activity at 15000 µM ([2]; Homo sapiens, HL-60, 24 h, Conc. 15 mM, read-out: Energy Use by Undifferentiated HL-60 Cells): 97.7%; activity at 20000 µM ([2]; Homo sapiens, HL-60, 24 h, Conc. 20 mM, read-out: Energy Use by Undifferentiated HL-60 Cells): 104%
